Measured values published in patent US20230192701A1, “BICYCLIC KINASE INHIBITORS AND USES THEREOF” (iOmx Therapeutics AG, priority 2020, published 2023).

Assays:
SIK3 = SIK3 (Homo sapiens, UniProt Q9Y2K2); test: radiometric protein kinase assay (33PanQinase Activity Assay), SIK3; format: biochemical; conditions: ATP 1.0 μM, substrate RBER-CHKtide
Experimental: The IC50s of the compounds against the SIK family of protein-serine/threonine kinases (SIK2 and SIK3) were determined as followed. Briefly, a radiometric protein kinase assay (33PanQinase® Activity Assay) was used for measuring the kinase activity of the two protein kinases. The kinase assays were performed in 96-well FlashPlates™ from PerkinElmer (Boston, Mass., USA) in a 50 uL reaction volume. The reaction cocktail was pipetted in four steps in the following order: • […] (standard buffer/[gamma-33P]-ATP) • 10 uL of ATP solution (in water) • 5 uL of test compound (in 10% DMSO) • 20 uL enzyme/substrate mix
The following amounts of enzyme and applicable substrate were used per well:
The reaction cocktails were incubated at 30 °C for 60 minutes. The reaction was stopped with 50 uL of 2% (v/v) H3PO4, plates were aspirated and washed two times with 200 μL 0.9% (w/v) NaCl. Incorporation of 33Pi was determined with a microplate scintillation counter (Microbeta, Wallac). All assays were performed with a BeckmanCoulter/SAGIAN™ Core System.

[1] = tested on: 335 wild-type protein kinases; test: single-point inhibition assays, residual activity (ProQinase Kinase Profiler); format: biochemical; conditions: single-point 0.1 uM and 1 uM, 335 kinases
Experimental: Several compounds of Formula (I) described herein were also tested in single-point (0.1 uM and 1 uM) inhibition assays over a diverse set of 335 wild-type protein (ProQinase “Kinase Profiler”; ProQinase, Freiburg, Germany), in which the residual activity of each kinase was determined. […] Secondly, the residual activity of each kinase was compared to other compounds tested (in particular, against the prior art compounds PY1) by use of scatter plots.

MC38 tumour cells = test: TNF-sensitised cell viability assay (CellTiter-Glo), MC38; format: cell-based, murine; conditions: Mus musculus, MC-38, read-out: MC38 IC50 (at 100 ng/ml rMuTNF); 100 ng/ml rMuTNF, 72 h
[2] = Mouse liver microsomal stability; format: in vitro ADME; conditions: pH 7.4; mouse liver microsomes, NADPH, 37°C
Experimental: Briefly, human and liver microsomal stability was determined by pre-incubation of 2.5 uL compound and 75 uL of the respective liver microsomes in potassium phosphate buffer (pH 7.4) at 37° C. After adding of NADPH as cofactor and further incubation at 37° C. for 60 min, acetonitrile containing internal standard was added, and the sample was vortexed for 5 min at 1200 rpm and then centrifuged 10 min at 4000 rpm.
(§1) LC-MS/MS was performed for all assays using a C18 column (50*4.6 mm, 5 um) for the CaCo2 assay, or a C18 column (50*4.6 mm, 4 um) for the other assays. The mobile phases used were 10 mM Ammonium Acetate with 0.1% Formic acid (aqueous) and 100% Acetonitrile (organic).

[3] = Human plasma-protein binding (RED method); format: in vitro ADME
Experimental: (§2) Human and mice protein plasma binding was determined using the Plasma Protein Binding by RED Method. Briefly, 200 uL of the respective plasma containing the test compound (10 uM) was spiked into the donor well (RED Chamber) of the insert. 350 uL of PBS was spiked into receiver well (white chamber). The plate was incubated at 37° C. in a thermomixer at 400 rpm for 5 hours. The samples were matrix equilibrated with opposite matrix (25 uL blank buffet/Plasma). Matrix matched samples were precipitated with 200 uL of Acetonitrile containing Internal standard. Samples were vortexed at 1000 rpm for 5 min and centrifuged at 4000 rpm for 10 min. The supernatant was diluted 2 folds with water and % bound and unbound protein and % recovery at 5 h was determined by LC-MS/MS.
as §1

[4] = Murine plasma protein binding (RED method); format: in vitro ADME; conditions: mouse
Experimental: as §2, §1

Sequence of SIK3 (Q9Y2K2 whole entry): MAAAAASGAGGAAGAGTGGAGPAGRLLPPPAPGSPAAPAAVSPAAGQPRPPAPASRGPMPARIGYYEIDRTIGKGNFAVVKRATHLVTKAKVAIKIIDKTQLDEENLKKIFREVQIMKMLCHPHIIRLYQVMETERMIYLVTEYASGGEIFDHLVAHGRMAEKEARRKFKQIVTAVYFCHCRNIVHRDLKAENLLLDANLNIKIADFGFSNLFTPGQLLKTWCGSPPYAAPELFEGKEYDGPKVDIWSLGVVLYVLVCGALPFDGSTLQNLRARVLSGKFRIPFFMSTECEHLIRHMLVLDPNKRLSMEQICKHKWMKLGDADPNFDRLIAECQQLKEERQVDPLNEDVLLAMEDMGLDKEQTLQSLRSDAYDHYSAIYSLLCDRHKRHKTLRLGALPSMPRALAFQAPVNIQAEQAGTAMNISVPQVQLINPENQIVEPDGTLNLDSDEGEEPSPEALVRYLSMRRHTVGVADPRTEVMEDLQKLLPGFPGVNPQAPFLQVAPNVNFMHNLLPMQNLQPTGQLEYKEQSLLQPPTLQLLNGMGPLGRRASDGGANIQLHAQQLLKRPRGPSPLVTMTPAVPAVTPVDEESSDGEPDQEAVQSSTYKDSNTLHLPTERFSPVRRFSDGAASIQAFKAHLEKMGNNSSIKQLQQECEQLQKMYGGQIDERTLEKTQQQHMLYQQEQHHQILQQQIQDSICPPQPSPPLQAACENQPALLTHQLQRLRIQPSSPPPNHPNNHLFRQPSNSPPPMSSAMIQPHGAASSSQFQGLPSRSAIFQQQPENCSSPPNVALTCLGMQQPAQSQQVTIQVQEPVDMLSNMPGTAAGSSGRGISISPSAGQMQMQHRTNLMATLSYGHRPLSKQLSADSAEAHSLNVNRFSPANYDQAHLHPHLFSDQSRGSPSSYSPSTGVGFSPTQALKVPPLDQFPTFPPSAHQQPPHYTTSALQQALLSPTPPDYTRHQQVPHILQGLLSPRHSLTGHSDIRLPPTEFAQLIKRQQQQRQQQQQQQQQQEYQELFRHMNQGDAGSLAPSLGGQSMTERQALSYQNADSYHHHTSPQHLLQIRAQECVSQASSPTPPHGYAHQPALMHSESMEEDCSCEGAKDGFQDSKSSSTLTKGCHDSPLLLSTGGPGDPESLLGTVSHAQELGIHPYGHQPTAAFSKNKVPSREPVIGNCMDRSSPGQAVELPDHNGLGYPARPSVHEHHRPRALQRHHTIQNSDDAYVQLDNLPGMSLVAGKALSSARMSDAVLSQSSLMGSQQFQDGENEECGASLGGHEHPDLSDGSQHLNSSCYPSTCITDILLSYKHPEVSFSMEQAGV

- IC50 (SIK3): 200 to 400 nM
- particular kinases with different inhibition than PY1 [1]: BLK, SIK3 and TEC
- half-life [2]: 45 min
- recovery at 5 h, 10 uM [3]: 32%
- recovery at 5 h, 10 uM [4]: 40%
SMILES: COc1ccc(N2C(=O)N(c3c(C)csc3Cl)Cc3cnc(Nc4ccc(C5CCN(C)CC5)cc4OC)nc32)nc1 [AA1, 3-(2-chloro-4-methylthiophen-3-yl)-7-((2-methoxy-4-(1-methylpiperidin-4-yl)phenyl)amino)-l-(5-methoxypyridin-2-yl)-3,4-dihydropyrimido[4,5-d]pyrimidin-2(1H)-one]
- overall kinase profile compared to prior art compound PY1 [1]: most similar overall kinase profile to the prior art compound PY1
- IC50 (MC38 tumour cells): 1 to 1.5 µM
